For data set [1] the following is noted: clinical trials on over 2800 patients for one or two years; cited from earlier work.
For data set [2] the following is noted: cited from earlier work.
For data set [3] the following is noted: cited from earlier work. The source holds these as a separate data set.
The conditions of data set [4]: cited from earlier work. The source holds these as a separate data set.
The target of data set [5] is T1, pancreatic lipase (Homo sapiens, UniProt P16233).
T1 sequence (P16233 17-465): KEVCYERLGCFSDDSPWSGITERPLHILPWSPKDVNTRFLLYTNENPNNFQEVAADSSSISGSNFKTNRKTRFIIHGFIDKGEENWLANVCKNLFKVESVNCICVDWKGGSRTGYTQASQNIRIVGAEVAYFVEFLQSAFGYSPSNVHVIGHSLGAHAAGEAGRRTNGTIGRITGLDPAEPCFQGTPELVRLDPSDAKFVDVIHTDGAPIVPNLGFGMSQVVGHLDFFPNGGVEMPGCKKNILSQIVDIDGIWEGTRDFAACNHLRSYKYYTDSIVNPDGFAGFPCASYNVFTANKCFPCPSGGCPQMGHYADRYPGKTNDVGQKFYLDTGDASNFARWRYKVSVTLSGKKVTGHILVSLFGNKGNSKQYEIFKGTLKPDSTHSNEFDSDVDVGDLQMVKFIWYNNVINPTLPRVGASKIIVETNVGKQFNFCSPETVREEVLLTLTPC
As to the kind of experiment: in vitro testing of lipase inhibitor effectiveness in presence of activated charcoal. It counts as biochemical. To be noted: 60 mg of orlistat with simethicone and 400 mg of porous activated charcoal (not enteric-coated). The text has this:
While the embodiment described in the preceding paragraph has been proven effective in preventing Underwear Issues associated with lipase inhibitors, in vitro testing has shown that the effectiveness of the lipase inhibitor is decreased due to the fact that some of the lipase inhibitor is absorbed by the activated charcoal and is therefore not available for binding to pancreatic lipase. […] Rather, the pharmaceutical composition may be configured such that the lipase inhibitor and surfactant are released in the stomach, and the activated charcoal is not released until the small intestine. By doing so, the lipase inhibitor becomes irreversibly bound to the pancreatic lipase enzyme (about 25%) in the very first 10 centimeters of the small intestines (the duodenum), prior to release of the activated charcoal, thus ensuring that the activated charcoal will not interfere with the ability of the lipase inhibitor to inactivate pancreatic lipase. For this reason, the activated charcoal in some embodiments of the compositions and methods herein is enteric-coated in order to maintain the full efficacy of the lipase inhibitor. […] Therefore, by using an enteric coated porous activated charcoal, the small undigested fat, emulsified in the chyme by actions of the emulsifying agent, can be chelated by the released porous activated charcoal in the distal small bowel.

Structures are written as SMILES. Like-named read-outs stand apart in the source and are kept apart here.

The source of these data is patent US20130089603A1, “COMPOSITIONS AND METHODS FOR TREATING OBESITY AND OBESITY-RELATED CONDITIONS” (CHELATEXX LLC, priority 2006, published 2013).

As for `CCCCCCCCCCC[C@@H](C[C@@H]1OC(=O)[C@H]1CCCCCC)OC(=O)[C@H](CC(C)C)NC=O` [orlistat, tetrahydrolipstatin], in data set [1], the “Abdominal pain/discomfort (upper gastrointestinal adverse event)” value is 25.5%, the “Fatty/Oily stool (lower gastrointestinal adverse event)” value was 26.0%, the “Fecal incontinence (lower gastrointestinal adverse event)” value is given as 7.7% and the “Fecal urgency (lower gastrointestinal adverse event)” value is 22.1%. Further, in data set [1], the “Flatus - with discharge (lower gastrointestinal adverse event)” value is 23.9%, the “Increased defecation (lower gastrointestinal adverse event)” value was 10.8%, the “Nausea (upper gastrointestinal adverse event)” value was 8.1% and the “Oily Evacuation (lower gastrointestinal adverse event)” value is 11.9%. Further, the “Oily Spotting (lower gastrointestinal adverse event)” value in data set [1] is 26.6%. In addition, the “ingested fat whose digestion and absorption is prevented” value in data set [2] (60 mg dose of orlistat (OTC)) is reported as 25%. Besides, in data set [2] (120 mg dose of orlistat (prescription)), the “ingested fat whose digestion and absorption is prevented” value was 30%. Also, the “ingested fat whose digestion and absorption is prevented” value in data set [2] (dose not stated) was 25-35%. Besides, the “individuals reporting orlistat adverse events” value in data set [3] (normal (25 grams of fat/meal) US diet) is listed as “over 90%”. Moreover, the “individuals reporting orlistat adverse events” value in data set [3] (rigid low fat diet) is “over 50%”. In addition, in data set [4] (60 mg of orlistat), the “study participants with adverse events” value is 89.1%. Moreover, the “study participants with adverse events” value in data set [4] (120 mg of orlistat) is 91.4%. Also, the “decrease in the effectiveness of the orlistat” value in data set [5] amounted to 30%.
